Laboratory results published in patent US4734416A, “Pharmaceutically useful carbostyril derivatives” (Otsuka Pharmaceutical Co., Ltd., priority 1978, dated 1988).
Where a name gives a salt, the structure may show the parent alone.

What was measured:
[1] = Halothane anesthesia increasing activity (righting reflex); type: in vivo, mouse (male, ddy-strain); conditions: oral; for Time (minutes) between introduction of anesthesia and waking: 8 mg/kg, 1 hour before 4% Halothane
Method: Male mice of ddy-strain having about 20 g body weight are used. One test group consists of 10 mice. An aqueous Gummi Arabicum suspension of test compound (80 mg of a compound to be tested and 1 g of Gummi Arabicum/100 ml of physiological NaCl solution) is administered orally to each mouse at the dosage of 8 mg of test compound/kg body. One hour after the administration, each mouse is placed in a gas respiration chamber (13×13×24 cm) and oxygen gas containing 4% of Halothane [2-bromo-2-chloro-1,1,1-trifluoroethane] is blown into the chamber at the velocity of 2 l/min for 3 minutes. A mouse anaesthetized is taken out from the chamber and the time between the introduction of anesthesia to waking is measured by righting reflex as the index. To mice of the control group, 1% Gummi Arabicum aqueous physiological solution is orally administered at the dosage of 0.1 ml/10 g body. [Reference: M. J. Turnbull and J. W. Watkins: Br. J. Pharmac., 58, 27-35 (1976)]
Same procedures as mentioned in (II)-(A) are employed, except that the amount of test compound to be orally administered is changed in 4 steps at the dosage of 0.5 mg/kg, 1 mg/kg, 2 mg/kg and 4 mg/kg respectively to measure the relationship between the dosage and degree of strength of anesthesia increasing activity.

[2] = target: T1, enucleated ileum of a guinea pig (Cavia porcellus, UniProt P31389); experiment: Antihistamine activity test in vitro (enucleated guinea pig ileum, histamine retraction, pA2 by Van Rossam method); conditions: 10^-6 g/ml test compound, 5 minutes before histamine, 36° C.
T1 construct: the tissue of ileum is cut to a length of 2.5 to 3.0 cm and suspended in an organ bath; from tissue; host or cells: isolated ileum from the ileocecal region of male guinea pig
Method: As to the test method for determining antihistamine activity of a compound in vitro, a method of using an enucleated ileum of a guinea pig is generally accepted.
A male guinea pig having 300 to 500 g body weight is killed by blood letting. An ileum having a length of 15 cm being enculeated from the ileocecal region is dipped into Tyrode's solution (which is prepared from […], 0.2 g of KCl, 0.2 g of CaCl2, 1.0 g of glucose, 1.0 g of NaHCO3, 0.065 g of NaHPO4.2H2 O and 0.2135 g of MgCl2.6H2 O to make 1000 ml in total volume by adding water). Then the tissue of ileum is cut to a length of 2.5 to 3.0 cm and suspended in an organ bath filled with 30 ml of Tyrode's solution. The organ bath is kept at a temperature of 36° C. and a mixed gas consisting of 5% of CO2 and 95% of O2 is blown into the bath. 10 Minutes after the blowing, 10^-6 M of histamine is added to the bath to examine the sensitivity of the tissue and a reaction curve (control) with respect to the dosage of histamine is obtained. After the dosage of histamine-reaction curve (control) becomes constant, 10^-6 g/ml of a compound to be tested is added to the bath and further histamine is added 5 minutes later to obtain a dosage-reaction curve. Retraction of the ileum is recorded on a pen-recorder through an isotonic transducer [TD-112S manufactured by Nihon Koden]. Antihistamine activity of the test compound is determined as pA2 value by the "Van Rossam" method [J. M. Van Rossam; Arch. Inst. Pharmacodyn., 143, 299 (1963)] wherein the maximum retraction of ileum caused by histamine shown in the control curve is 100%.

T1 sequence (P31389 whole entry): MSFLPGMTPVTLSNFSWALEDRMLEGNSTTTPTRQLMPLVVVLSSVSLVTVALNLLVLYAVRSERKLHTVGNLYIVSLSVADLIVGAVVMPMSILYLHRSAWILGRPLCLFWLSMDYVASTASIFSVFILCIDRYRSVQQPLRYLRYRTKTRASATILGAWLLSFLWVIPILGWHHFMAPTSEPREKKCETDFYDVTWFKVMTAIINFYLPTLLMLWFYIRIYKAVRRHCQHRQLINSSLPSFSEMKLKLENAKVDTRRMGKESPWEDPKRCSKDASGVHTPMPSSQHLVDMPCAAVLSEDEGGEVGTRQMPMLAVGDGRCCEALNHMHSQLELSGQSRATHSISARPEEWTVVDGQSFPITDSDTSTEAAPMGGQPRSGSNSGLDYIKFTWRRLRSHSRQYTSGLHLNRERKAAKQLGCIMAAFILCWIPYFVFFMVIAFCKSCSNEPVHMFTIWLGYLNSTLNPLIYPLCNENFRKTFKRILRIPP

| Compound | Time (minutes) between introduction of anesthesia and waking [1] [min] | Kb [2] [nM] | Anesthesia increasing activity ([1]; 0.5 mg/kg) [min] | Anesthesia increasing activity ([1]; 1 mg/kg) [min] | Anesthesia increasing activity ([1]; 2 mg/kg) [min] | Anesthesia increasing activity ([1]; 4 mg/kg) [min] |
| --- | --- | --- | --- | --- | --- | --- |
| CC(=O)OC(COc1cccc2c1CCC(=O)N2)CN1CCN(c2ccccc2)CC1 (centres unmarked) [Compound 20, 5-[2-Acetyloxy-3-(4-phenylpiperazinyl)propoxy]-3,4-dihydrocarbostyril] | 9.8 ± 3.7 | 1.23 | – | – | – | – |
| O=C1CCc2ccc(OCCCN3CCN(c4cccc(F)c4)CC3)cc2N1 [Compound 24, 7-{3-[4-(3-Fluorophenyl)piperazinyl]propoxy}-3,4-dihydrocarbostyril] | 11.6 ± 6.7 | 0.257 | – | – | – | – |
| CCCCCCN1C(=O)CCc2ccc(OCCCN3CCN(c4ccccc4)CC3)cc21 [Compound 38, 1-Hexyl-7-[3-(4-phenylpiperazinyl)propoxy)]-3,4-dihydrocarbostyril dihydrochloride] | – | 1.17 | – | – | – | – |
| O=c1cc(-c2ccccc2)c2ccc(OCCCN3CCN(c4ccccc4)CC3)cc2[nH]1 [Compound 27, 4-Phenyl-7-[3-(4-phenylpiperazinyl)propoxy]carbostyril] | 7.8 ± 3.2 | 0.977 | – | – | – | – |
| O=C1CCc2cc(Cl)c(OCCCN3CCN(c4ccccc4)CC3)c(Br)c2N1 [Compound 28, 6-Chloro-8-bromo-7-[3-(4-phenylpiperazinyl)propoxy]-3,4-dihydrocarbostyril dihydrochloride] | 10.2 ± 5.8 | 0.229 | – | – | – | – |
| CC(=O)OCCN1CCN(CCCOc2ccc3c(c2)NC(=O)CC3)CC1 [Compound 32, 7-{3-[4-(2-Acetyloxyethyl)piperazinyl]propoxy}-3,4-dihydrocarbostyril] | 7.9 ± 3.1 | 30.2 | – | – | – | – |
| Cc1ccc(N2CCN(CCCOc3ccc4c(c3)NC(=O)CC4)CC2)cc1 [Compound 15, 7-{3-[4-(4-Methylphenyl)piperazinyl]propoxy}-3,4-dihydrocarbostyril] | 12.7 ± 3.5 | 0.331 | – | – | – | – |
| Cc1ccc(N2CCN(CCCCOc3cccc4c3CCC(=O)N4)CC2)cc1 [Compound 10, 5-{4-[4-(4-Methylphenyl)piperazinyl]butoxy}-3,4-dihydrocarbostyril] | 7.9 ± 3.7 | 1.26 | – | – | – | – |
| O=C1CCc2ccc(OCCCN3CCN(Cc4ccccc4)CC3)cc2N1 [Compound 14, 7-[3-(4-Benzylpiperazinyl)propoxy]-3,4-dihydrocarbostyril] | 7.5 ± 4.3 | 0.794 | – | – | – | – |
| O=c1ccc2cc(OCCCN3CCN(c4ccccc4)CC3)ccc2[nH]1 [Compound 36, 6-[3-(4-Phenylpiperazinyl)propoxy]carbostyril] | 15.3 ± 3.1 | 10.2 | – | – | – | – |
| O=C1CCc2ccc(OCC(O)CN3CCN(c4ccccc4)CC3)cc2N1 (centres unmarked) [Compound 2, 7-[2-Hydroxy-3-(4-phenylpiperazinyl)propoxy]-3,4-dihydrocarbostyril monohydrochloride] | 11.7 ± 5.6 | 17.8 | – | – | – | – |
| O=C1CCc2ccc(OCCCN3CCN(CCO)CC3)cc2N1 [Compound 33, 7-{3-[4-(2-Hydroxyethyl)piperazinyl]propoxy}-3,4-dihydrocarbostyril] | 7.4 ± 2.6 | 95.5 | – | – | – | – |
| O=C1CCc2c(c(Cl)cc(Cl)c2OCC(O)CN2CCN(c3ccccc3)CC2)N1 (centres unmarked) [Compound 4, 6,8-Dichloro-5-[2-hydroxy-3-(4-phenylpiperazinyl)propoxy]-3,4-dihydrocarbostyril monohydrochloride] | 7.4 ± 2.7 | 1.12 | – | – | – | – |
| COc1cc(C(=O)OC(COc2cccc3c2CCC(=O)N3)CN2CCN(c3ccccc3)CC2)cc(OC)c1OC (centres unmarked) [Compound 21, 5-[2-(3,4,5-Trimethoxybenzoyloxy)-3-(4-phenylpiperazinyl)propoxy]-3,4-dihydrocarbostyril] | 8.1 ± 3.9 | 0.912 | – | – | – | – |
| O=C1CCc2ccc(OCCCN3CCN(C(=O)c4ccccc4)CC3)cc2N1 [Compound 35, 7-[3-(4-Benzoylpiperazinyl)propoxy]-3,4-dihydrocarbostyril] | 8.2 ± 3.7 | 2.63 | – | – | – | – |
| C=CCN1C(=O)CCc2c(OCC(O)CN3CCN(c4ccc(C)cc4)CC3)cccc21 (centres unmarked) [Compound 11, 1-Allyl-5-{2-hydroxy-3-[4-(4-methylphenyl)piperazinyl]propoxy}-3,4-dihydrocarbostyril] | 6.8 ± 2.2 | 0.617 | – | – | – | – |
| O=C1CCc2c(OCC(O)CN3CCN(c4ccc(Cl)cc4)CC3)ccc(Cl)c2N1 (centres unmarked) [Compound 3, 8-Chloro-5-{2-hydroxy-3-[4-(4-chlorophenyl)piperazinyl]propoxy}-3,4-dihydrocarbostyril monohydrochloride] | 7.9 ± 3.4 | 4.9 | – | – | – | – |
| O=c1cc(OCCCN2CCN(c3ccccc3)CC2)c2ccccc2[nH]1 [Compound 26, 4-[3-(4-Phenylpiperazinyl)propoxy]carbostyril] | 8.5 ± 3.7 | 2.19 | – | – | – | – |
| Cc1cc(=O)[nH]c2cc(OCCCN3CCN(c4ccccc4)CC3)ccc12 [Compound 13, 4-Methyl-7-[3-(4-phenylpiperazinyl)propoxy]carbostyril] | 8.1 ± 2.7 | 0.407 | – | – | – | – |
| O=C1CCc2c(cccc2OCC(O)CN2CCN(c3ccccc3)CC2)N1 (centres unmarked) [Compound 1, 5-[2-Hydroxy-3-(4-phenylpiperazinyl)propoxy]-3,4-dihydrocarbostyril monohydrochloride] | 9.3 ± 4.9 | 8.32 | – | – | – | – |
| CC(=O)N1CCN(CCCOc2ccc3c(c2)NC(=O)CC3)CC1 [Compound 34, 7-[3-(4-Acetylpiperazinyl)propoxy]-3,4-dihydrocarbostyril] | 7.8 ± 3.4 | 57.5 | – | – | – | – |
| O=C1CCc2c(cccc2OCCCN2CCN(C3CCCCC3)CC2)N1 [Compound 30, 5-[3-(4-Cyclohexylpiperazinyl)propoxy]-3,4-dihydrocarbostyril] | 7.9 ± 3.7 | 44.7 | – | – | – | – |
| COc1cc(N2CCN(CCCOc3ccc4c(c3)NC(=O)CC4)CC2)cc(OC)c1OC [Compound 29, 7-{3-[4-(3,4,5-Trimethoxyphenyl)piperazinyl]propoxy}-3,4-dihydrocarbostyril dihydrochloride] | 9.3 ± 4.4 | 2.69 | 5.6 ± 2.8 | 6.6 ± 3.1 | 8.3 ± 3.7 | 13.6 ± 4.9 |
| O=C1CCc2ccc(OCCCN3CCN(c4ccc(Cl)cc4)CC3)cc2N1 [Compound 16, 7-{3-[4-(4-Chlorophenyl)piperazinyl]propoxy}-3,4-dihydrocarbostyril] | 11.4 ± 5.6 | 0.234 | – | – | – | – |
| CCCC(C)C1(CC)C(=O)NC(=O)NC1=O (centres unmarked) [Pentobarbital, reference compound] | – | – | 5.3 ± 2.6 | 4.9 ± 3.5 | 6.3 ± 2.3 | 8.1 ± 3.1 |
| O=C1CCc2cccc(OCCCN3CCN(c4ccccc4)CC3)c2N1 [Compound 19, 8-[3-(4-Phenylpiperazinyl)propoxy]-3,4-dihydrocarbostyril] | 9.3 ± 3.5 | 10.2 | – | – | – | – |
| COc1ccccc1N1CCN(CCCOc2ccc3ccc(=O)[nH]c3c2)CC1 [Compound 22, 7-{3-[4-(2-Methoxyphenyl)piperazinyl]propoxy}-carbostyril dihydrochloride] | 10.4 ± 4.1 | 11.7 | – | – | – | – |
